Results from patent publication US20120316105A1, “Polymyxin Derivates Useful As Antibacterial Agents” (priority 2011, published 2012).
Bridge positions count the residues as written; N and C are the ends. Square brackets hold non-standard residues; d marks the D form. Peptide text beside a SMILES is read from it. * marks the point of attachment. Quinoline3carbonyl = O=C(c1cnc2ccccc2c1)*; X34 = COc1ccc(-c2cc(C(=O)*)ccn2)cc1; X6 = O=C(c1cccc(-c2ccc(F)cc2)c1)*; X11 = Cc1ccccc1-c1cccc(C(=O)*)c1; Dab = NCC[C@H](N)C(=O)O; Dap = NC[C@H](N)C(=O)O

Experiments:
[1] = system: PA-1646, polymyxin-resistant clinical isolate of Pseudomonas aeruginosa; type: cell-based; conditions: PA-1646, polymyxin-resistant clinical isolate of
Protocol: (§1) Minimum bactericidal concentration (MBC, mg/L), minimum inhibitory concentration (MIC, mg/L), and human renal proximal tubule epithelial cell line cytotoxicity concentration 50% (hRPTEC, TC50, micromolar) for compounds of Formula I are listed in Table 2. The compounds of Formula I were tested as the corresponding trifluoroacetate salt except for Example 1 which was tested as the sulfate salt. For Table 2 below: PMB=polymyxin B as the sulfate salt (Bedford Laboratories, pharmaceutical grade); PMB1=polymyxin B1 as the trifluoroacetate salt; Nona=polymyxin B nonapeptide as the trifluoroacetate salt. PMB1 and Nona were prepared using the solid phase methodology described in the experimental section herein.
(§2) The in vitro antibacterial activity of compounds of Formula I was evaluated by MIC testing according to Clinical and Laboratory Standards Institute (CLSI). See: Clinical and Laboratory Standards Institute. Methods for Dilution Antimicrobial Susceptibility Tests for Bacteria that Grow Aerobically; Approved Standard-Eighth Edition. CLSI document M7-A8 [ISBN 1-56238-689-1]. Clinical and Laboratory Standards Institute, 940 West Valley Road, Suite 1400, Wayne, Pa. 19087-1898 USA, 2006; also Clinical and Laboratory Standards Institute. Performance Standards for Antimicrobial Susceptibility Testing; Twentieth Informational Supplement. CLSI document M100-S20 [ISBN 1-56238-716-2]. Clinical and Laboratory Standards Institute. Methods for Determining Bactericidal Activity of Antimicrobial Agents; Approved Guideline. CLSI document M26-A (ISBN 1-56238-384-1). CLSI, 940 West Valley Road, Suite 1400, Wayne, Pa. 19087-1898 USA, 1999.
PA-1646 is a polymyxin-resistant clinical isolate of Pseudomonas aeruginosa obtained from JMI labs (www.jmilabs.com);

[2] = system: AB-1649, polymyxin-resistant clinical isolate of Acinetobacter baumannii; type: cell-based; conditions: AB-1649, polymyxin-resistant clinical isolate of
Protocol: as §1, §2
AB-1649 is a polymyxin-resistant clinical isolate of Acinetobacter baumannii obtained from JMI labs (www.jmilabs.com);

[3] = system: AB-3167, clinical isolate of Acinetobacter baumannii; type: cell-based; conditions: AB-3167, clinical isolate of
Protocol: as §1, §2
(§3) The MIC determination is a standard laboratory method for evaluating the antibacterial activity of a compound. The MIC represents the lowest drug concentration that inhibits visible growth of bacteria following overnight incubation. […] Typically, the drug concentration range is broken down into 2-fold increments (e.g. 0.06 mg/L, 0.12 mg/L, 0.25 mg/L, 0.50 mg/L, 1.0 mg/L, etc.) and the various drug concentrations are all individually incubated overnight with approximately the same number of bacteria. The MIC is then determined by visually inspecting the drug effect at each concentration, and identifying the lowest drug concentration that has inhibited bacterial growth as compared to the drug free control. Typically, bacteria continue to grow at drug concentrations lower than the MIC and don't grow at concentrations at and above the MIC.
(§4) The MIC values described in Table 2 below were derived from assays wherein each test compound was evaluated in duplicate. In cases where the duplicate values varied by 0-2-fold, the lower of the two values was reported below. Generally speaking, if the duplicate values varied by more than 2-fold, the assay was considered non-valid and was repeated until the variation between duplicate runs was ≦2-fold. In line with the CLSI guidelines referred to above, both control organisms and reference compounds were utilized in each MIC assay to provide proper quality control. MIC values generated with these control organisms and reference compounds were required to fall within a defined range for the assay to be considered valid and be included herein. Those skilled in the art will recognize that MIC values can and do vary from experiment to experiment. Generally speaking, it should be recognized that MIC values often vary +/−2-fold from experiment to experiment. While a single MIC is reported for each compound and each microorganism, the reader should not conclude that each compound was only tested once. Several of the compounds were subjected to multiple tests. The data reported in Table 2 is reflective of the compounds relative activity and different MICs may have been generated on these occasions in line with the guidelines described above.
(§5) The following bacterial strains were used in these MIC determinations: […]

[4] = system: PA-1646, polymyxin-resistant clinical isolate of Pseudomonas aeruginosa; type: cell-based; conditions: PA-1646, polymyxin-resistant clinical isolate of; remark: listed apart in the source
Protocol: as §1, §2, §3, §4, §5

[5] = system: Pseudomonas aeruginosa strain PA01; type: cell-based; conditions: strain
Protocol: as §1, §2, §3, §4, §5

[6] = system: AB-1649, polymyxin-resistant clinical isolate of Acinetobacter baumannii; type: cell-based; conditions: AB-1649, polymyxin-resistant clinical isolate of; remark: listed apart in the source
Protocol: as §1, §2, §3, §4, §5

[7] = Cytotoxicity assay (LDH release), hRPTEC; type: cell-based, human; conditions: human
Protocol: as §1
Human Renal Proximal Tubule Epithelial cells (hRPTEC) were obtained from Lonza (Walkersville, Md., USA) and cultured in REGM (Renal Epithelial Cell Basal Medium supplemented with human epithelial growth factor, hydrocortisone, epinephrine, insulin, triiodothyronine, transferrin, gentamycin/amphotericin-B, and fetal bovine serum). The hRPTEC cells were seeded into 96-well plates and incubated at 37° C. in 5% CO2. Following a growth period of 72 hours, cells were treated with compounds at 100, 67, 44, 30, 20 and 13 micromolar for 24 hours at 37° C. in 5% CO2. The cell supernatant was then harvested for determination of LDH (lactate dehydrogenase) production. The Cytotoxicity Detection Kit from Roche was used for the measurement of LDH activity released from damaged cells. The Toxic Concentration 50% (TC50, micromolar) values were determined for each compound and compared to the control compounds (polymyxin B was used as a positive control and polymyxin B nonapepetide was used as negative control).

[8] = system: EC-1, mouse virulent strain of Escherichia coli; type: cell-based; conditions: E. coli EC-1; overnight incubation, lower of duplicate values; trifluoroacetate salt (Example 1 and PMB sulfate)
Protocol: as §1, §2, §3, §4
The following bacterial strains were used in these MIC determinations:
EC-1 is a mouse virulent strain of Escherichia coli.

CC(C)C[C@@H]1NC(=O)[C@@H](Cc2ccccc2)NC(=O)[C@H](CCN)NC(=O)[C@@H](NC(=O)[C@H](CN)NC(=O)[C@@H](NC(=O)[C@H](CCN)NC(=O)c2cccc(-c3ccc(F)cc3)c2)[C@@H](C)O)CCNC(=O)[C@H]([C@@H](C)O)NC(=O)[C@H](CCN)NC(=O)[C@H](CCN)NC1=O [Example 20] (X6-[Dab]T[Dap][Dab][Dab][dF]L[Dab][Dab]T; lactam 4-C)
PA-1646 MBC [1]: 1 µg/mL | AB-1649 MBC [2]: 2 µg/mL | AB-3167 MIC [3]: 0.25 µg/mL | PA-1646 MIC [4]: 1 µg/mL | PA01 MIC [5]: 0.5 µg/mL | AB-1649 MIC [6]: 2 µg/mL | CC50 at 24 h [7]: 18 µM | EC-1 MIC [8]: 0.25 µg/mL

Cc1ccccc1-c1cccc(C(=O)N[C@@H](CCN)C(=O)N[C@H](C(=O)N[C@@H](CN)C(=O)N[C@H]2CCNC(=O)[C@H]([C@@H](C)O)NC(=O)[C@H](CCN)NC(=O)[C@H](CCN)NC(=O)[C@H](CC(C)C)NC(=O)[C@@H](Cc3ccccc3)NC(=O)[C@H](CCN)NC2=O)[C@@H](C)O)c1 [Example 21] (X11-[Dab]T[Dap][Dab][Dab][dF]L[Dab][Dab]T; lactam 4-C)
PA-1646 MBC [1]: 2 µg/mL | AB-1649 MBC [2]: 2 µg/mL | AB-3167 MIC [3]: 0.25 µg/mL | PA-1646 MIC [4]: 2 µg/mL | PA01 MIC [5]: 1 µg/mL | AB-1649 MIC [6]: 2 µg/mL | CC50 at 24 h [7]: 15 µM | EC-1 MIC [8]: 0.25 µg/mL

COc1ccc(-c2cc(C(=O)N[C@@H](CCN)C(=O)N[C@H](C(=O)N[C@@H](CN)C(=O)N[C@H]3CCNC(=O)[C@H]([C@@H](C)O)NC(=O)[C@H](CCN)NC(=O)[C@H](CCN)NC(=O)[C@H](CC(C)C)NC(=O)[C@@H](Cc4ccccc4)NC(=O)[C@H](CCN)NC3=O)[C@@H](C)O)ccn2)cc1 [Example 22] (X34-[Dab]T[Dap][Dab][Dab][dF]L[Dab][Dab]T; lactam 4-C)
PA-1646 MBC [1]: 8 µg/mL | AB-1649 MBC [2]: 2 µg/mL | AB-3167 MIC [3]: 0.25 µg/mL | PA-1646 MIC [4]: 2 µg/mL | PA01 MIC [5]: 0.5 µg/mL | AB-1649 MIC [6]: 2 µg/mL | CC50 at 24 h [7]: 78 µM | EC-1 MIC [8]: 0.25 µg/mL

CC(C)C[C@@H]1NC(=O)[C@@H](Cc2ccccc2)NC(=O)[C@H](CCN)NC(=O)[C@@H](NC(=O)[C@H](CN)NC(=O)[C@@H](NC(=O)[C@H](CCN)NC(=O)c2cnc3ccccc3c2)[C@@H](C)O)CCNC(=O)[C@H]([C@@H](C)O)NC(=O)[C@H](CCN)NC(=O)[C@H](CCN)NC1=O [Example 23] (Quinoline3carbonyl-[Dab]T[Dap][Dab][Dab][dF]L[Dab][Dab]T; lactam 4-C)
PA-1646 MBC [1]: 4 µg/mL | AB-1649 MBC [2]: 8 µg/mL | AB-3167 MIC [3]: 0.5 µg/mL | PA-1646 MIC [4]: 4 µg/mL | PA01 MIC [5]: 0.25 µg/mL | AB-1649 MIC [6]: 4 µg/mL | CC50 at 24 h [7]: > 100 µM | EC-1 MIC [8]: 0.125 µg/mL
